Assay results from article PMC8341802 (RSC Chemical Biology, 2021).

Biological target: APOBEC3A (A3A) (Homo sapiens, UniProt P31941)
Format: biochemical

Sequence of APOBEC3A (A3A) (P31941 whole entry): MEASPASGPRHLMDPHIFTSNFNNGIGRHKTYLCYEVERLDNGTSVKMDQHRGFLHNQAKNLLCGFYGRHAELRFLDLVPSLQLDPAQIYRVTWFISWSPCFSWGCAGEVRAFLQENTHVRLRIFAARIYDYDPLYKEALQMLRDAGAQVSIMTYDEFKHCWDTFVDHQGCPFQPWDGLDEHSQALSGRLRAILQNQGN

IC50: 40.5 µM
SMILES: O=C(O)C1=CC(=C(c2ccc(O)c(C(=O)O)c2)c2ccc(O)c(C(=O)O)c2)C=CC1=O [MN1, aurintricarboxylic acid]
